We go through 13 molecules from ChEMBL document CHEMBL1142477, “Synergistic interaction between p-glycoprotein modulators and epirubicine on resistant cancer cells” (Bioorg Med Chem, 2008).

Data set [1] in a line: Potentiation of epirubicin-induced cytotoxicity against mouse L5178 cells assessed as fractional inhibitory index by checkerboard microplate method. It counts as functional.
Data set [2] addresses T1, ATP-dependent translocase ABCB1 (Homo sapiens, UniProt P08183). Kind of data set: Reversal of P-glycoprotein-mediated multidrug resistance in human MDR1 gene transfected mouse L5178 cells assessed as mean fluorescence intensity at 4 ug/ml by rhodamine-123 exclusion test. It is filed as cell-based.
Data set [3] concerns the target T1, ATP-dependent translocase ABCB1. Kind of data set: Reversal of P-glycoprotein-mediated multidrug resistance in human MDR1 gene transfected mouse L5178 cells assessed as fluorescence activity ratio at 4 ug/ml by rhodamine-123 exclusion test. It counts as cell-based.
Data set [4] shares this target. Kind of data set: Reversal of P-glycoprotein-mediated multidrug resistance in human MDR1 gene transfected mouse L5178 cells assessed as fluorescence activity ratio at 40 ug/ml by flow cytometry. It is filed as cell-based.
Data set [5] shares this target. Nature of the data set: Reversal of P-glycoprotein-mediated multidrug resistance in human MDR1 gene transfected mouse L5178 cells assessed as mean fluorescence intensity at 40 ug/ml by rhodamine-123 exclusion test. It counts as cell-based.
Data set [6] is described as follows: Antiproliferative activity against multidrug-resistant mouse L5178 cells after 72 hrs MTT assay. It is filed as functional. Particulars: L5178, 72 h, read-out: ID50 (the source's name).
The nature of data set [7]: Lipophilicity, log P of the compound. As to conditions: octanol/water. It counts as physicochemical.
Data set [8] can be described thus: Antiproliferative activity against parental mouse L5178 cells after 72 hrs MTT assay. As to conditions: L5178, 72 h, read-out: ID50 (the source's name). It counts as functional.

≈ marks a conversion by molar mass, not a printed value.

T1 sequence (P08183 whole entry): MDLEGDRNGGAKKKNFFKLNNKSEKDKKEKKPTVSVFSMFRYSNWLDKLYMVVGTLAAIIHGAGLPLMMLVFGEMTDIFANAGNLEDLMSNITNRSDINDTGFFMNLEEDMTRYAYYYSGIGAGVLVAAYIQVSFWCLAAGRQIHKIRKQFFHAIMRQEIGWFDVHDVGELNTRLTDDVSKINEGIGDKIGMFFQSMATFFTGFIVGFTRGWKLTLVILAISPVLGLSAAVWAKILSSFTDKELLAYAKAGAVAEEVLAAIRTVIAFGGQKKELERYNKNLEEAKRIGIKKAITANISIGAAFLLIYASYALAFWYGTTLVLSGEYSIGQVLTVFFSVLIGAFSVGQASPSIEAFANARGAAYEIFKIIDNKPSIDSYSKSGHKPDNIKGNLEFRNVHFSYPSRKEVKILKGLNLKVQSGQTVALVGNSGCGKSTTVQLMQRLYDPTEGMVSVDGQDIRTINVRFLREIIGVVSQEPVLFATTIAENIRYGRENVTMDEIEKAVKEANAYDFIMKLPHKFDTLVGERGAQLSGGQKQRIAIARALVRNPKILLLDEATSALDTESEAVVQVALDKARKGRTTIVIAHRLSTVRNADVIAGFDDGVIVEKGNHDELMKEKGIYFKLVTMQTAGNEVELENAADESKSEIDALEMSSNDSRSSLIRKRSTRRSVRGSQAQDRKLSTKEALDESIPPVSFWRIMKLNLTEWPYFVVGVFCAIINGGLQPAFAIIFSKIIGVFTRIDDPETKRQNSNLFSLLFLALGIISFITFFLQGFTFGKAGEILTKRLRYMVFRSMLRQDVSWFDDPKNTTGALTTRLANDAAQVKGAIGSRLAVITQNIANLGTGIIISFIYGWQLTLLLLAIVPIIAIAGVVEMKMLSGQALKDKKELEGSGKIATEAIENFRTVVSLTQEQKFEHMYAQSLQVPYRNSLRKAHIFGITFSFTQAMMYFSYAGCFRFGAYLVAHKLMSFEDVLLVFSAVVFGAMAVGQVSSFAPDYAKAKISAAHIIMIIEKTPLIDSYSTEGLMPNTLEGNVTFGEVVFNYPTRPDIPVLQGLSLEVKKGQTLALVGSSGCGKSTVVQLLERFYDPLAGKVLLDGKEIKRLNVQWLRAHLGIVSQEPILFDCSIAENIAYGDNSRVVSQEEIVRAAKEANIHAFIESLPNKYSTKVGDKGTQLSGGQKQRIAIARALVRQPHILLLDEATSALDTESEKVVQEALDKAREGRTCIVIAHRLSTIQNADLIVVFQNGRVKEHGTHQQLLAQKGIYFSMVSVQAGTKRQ

`C=C1[C@@H](OC(=O)c2ccccc2)[C@@H](OC(C)=O)[C@@H](OC(C)=O)C(C)(C)/C=C/[C@H](C)C(=O)[C@@]2(OC(C)=O)C[C@@](C)(OC(=O)c3ccccc3)[C@H](OC(C)=O)[C@@H]2[C@H]1OC(C)=O` [EUPHOTUCKEYANOL]: the “fractional inhibitory concentration index (FICI)” value in data set [1] was determined as 0.08. Also, the Flu intensity in data set [2] is 1127.4; in data set [5], 1476.7. In addition, the values for the Ratio in data set [3] and in data set [4] were 81 and 106.2, respectively. In addition, the results for the IC50 in data set [6] and in data set [8] were 22.8 µg/mL (≈ 27.8 µM) and 45 µg/mL (≈ 55 µM), respectively. Besides, in data set [7], the logP was found to be 6.7.

On to `C/C1=C\[C@@H]2[C@H](CC[C@@]3(C)O[C@@H]3[C@H]3[C@@H](O)[C@@H](C)C[C@]3(OC(=O)/C=C/c3ccccc3)C1=O)C2(C)C` [JOLKINOL B], for which, in data set [7], the logP is 5.8.

`CC(=O)OC[C@H]1C[C@]2(OC(=O)/C=C/c3ccccc3)C(=O)/C(C)=C/[C@@H]3[C@H](CC[C@@]4(C)O[C@@H]4[C@H]2[C@H]1O)C3(C)C` [LATILAGASCENE A]: the logP in data set [7] amounted to 5.5.

For `C/C1=C\[C@@H]2[C@H](CC[C@@]3(C)O[C@@H]3[C@H]3[C@@H](O)[C@@H](CO)C[C@]3(OC(=O)/C=C/c3ccccc3)C1=O)C2(C)C` [LATILAGASCENE B], the logP in data set [7] was determined as 4.8.

In data set [7], `CC(=O)OC[C@H]1C[C@]2(OC(=O)/C=C/c3ccccc3)C(=O)/C(C)=C/[C@@H]3[C@H](CC[C@@]4(C)O[C@@H]4[C@H]2[C@H]1OC(C)=O)C3(C)C` [LATILAGASCENE C] yielded a logP of 6.2.

`C/C1=C\[C@@H]2[C@H](CC[C@@]3(C)O[C@@H]3[C@H]3[C@@H](O)[C@@H](COC(=O)c4ccccc4)C[C@]3(OC(=O)/C=C/c3ccccc3)C1=O)C2(C)C` [LATILAGASCENE D] returned a logP in data set [7] of 7.2.

`CC1(C)[C@@H]2/C=C(\CO)C(=O)[C@@]3(OC(=O)/C=C/c4ccccc4)C[C@H](COC(=O)c4ccccc4)[C@H](O)[C@@H]3[C@H]3O[C@]3(C)CC[C@@H]21` [LATILAGASCENE E]: the logP in data set [7] came out at 5.9.

`C/C1=C\[C@@H]2[C@H](CC[C@@]3(C)O[C@@H]3[C@H]3[C@@H](O)[C@@H](C)C[C@]3(OC(=O)c3ccccc3)C1=O)C2(C)C` [LATILAGASCENE F] displayed a logP in data set [7] of 5.3.

Regarding `CC(=O)O[C@H]1[C@@H](COC(=O)c2ccccc2)C[C@]2(OC(=O)/C=C/c3ccccc3)C(=O)/C(C)=C/[C@@H]3[C@H](CC[C@@]4(C)O[C@@H]4[C@@H]12)C3(C)C` [LATILAGASCENE G], the “fractional inhibitory concentration index (FICI)” value in data set [1] is listed as 0.14. Moreover, the Flu intensity amounted to 478.3 in data set [2] and 496.6 in data set [5]. The figures for the Ratio in data set [3] and in data set [4] were 68.9 and 71.6, respectively. The IC50 in data set [6] is 28 µg/mL (≈ 44.7 µM); in data set [8], 32.2 µg/mL (≈ 51.4 µM). The logP in data set [7] is 7.9.

On to `CCC(=O)OC[C@H]1C[C@]2(OC(=O)/C=C/c3ccccc3)C(=O)/C(C)=C/[C@@H]3[C@H](CC[C@@]4(C)O[C@@H]4[C@H]2[C@H]1OC(=O)CC)C3(C)C` [LATILAGASCENE H], for which the “fractional inhibitory concentration index (FICI)” value in data set [1] was 0.07. For the same molecule, the results for the Flu intensity in data set [2] and in data set [5] were 427.4 and 541.3, respectively. Moreover, the Ratio stood at 61.6 in data set [3] and 78 in data set [4]. The IC50 worked out at 17.5 µg/mL (≈ 29.5 µM) in data set [6] and 25.3 µg/mL (≈ 42.7 µM) in data set [8]. This molecule also yielded a logP in data set [7] of 6.9.

Regarding `CCCC(=O)OC[C@H]1C[C@]2(OC(=O)/C=C/c3ccccc3)C(=O)/C(C)=C/[C@@H]3[C@H](CC[C@@]4(C)O[C@@H]4[C@H]2[C@H]1OC(=O)CCC)C3(C)C` [LATILAGASCENE I], the “fractional inhibitory concentration index (FICI)” value in data set [1] was 0.14. The Flu intensity in data set [2] is given as 433.4; in data set [5] it was 376.5. In addition, the figures for the Ratio in data set [3] and in data set [4] were 62.4 and 54.2, respectively. Besides, the IC50 worked out at 17.3 µg/mL (≈ 27.9 µM) in data set [6] and 23.9 µg/mL (≈ 38.5 µM) in data set [8]. The molecule further gave a logP in data set [7] of 8.

On to `C=C1[C@@H](OC(=O)C(C)CC)[C@@H](OC(C)=O)C(=O)C(C)(C)/C=C/[C@H](C)[C@H](OC(=O)c2ccccc2)[C@@]2(O)C[C@H](C)[C@H](OC(C)=O)[C@@H]2[C@H]1OC(C)=O` (stereo not given in full) [TUCKEYANOL A], for which, in data set [1], the “fractional inhibitory concentration index (FICI)” value is given as 0.18. For the same molecule, the Flu intensity in data set [2] is recorded as 554; in data set [5], 1375.6. Moreover, the results for the Ratio in data set [3] and in data set [4] were 39.8 and 98.9, respectively. Besides, the IC50 worked out at 17.6 µg/mL (≈ 25.2 µM) in data set [6] and 25.8 µg/mL (≈ 36.9 µM) in data set [8]. The logP in data set [7] came to 4.5.

Consider `C=C1[C@@H](OC(=O)C(C)C)[C@@H](OC(C)=O)C(=O)C(C)(C)/C=C/[C@H](C)[C@H](OC(=O)c2ccccc2)[C@@]2(O)C[C@H](C)[C@H](OC(C)=O)[C@@H]2[C@H]1OC(C)=O` [TUCKEYANOL B], for which, in data set [1], the “fractional inhibitory concentration index (FICI)” value was determined as 0.25. Also, the Flu intensity in data set [2] came to 347.6; in data set [5], 1353.2. Further, the Ratio amounted to 25 in data set [3] and 97.3 in data set [4]. Moreover, the IC50 is 12 µg/mL (≈ 17.5 µM) in data set [6] and 19.4 µg/mL (≈ 28.3 µM) in data set [8]. The molecule also came in with a logP in data set [7] of 4.
